Source: patent US20250243180A1, “TARGETED PROTEIN DEGRADATION” (Monte Rosa Therapeutics AG, priority 2023, published 2025)
Read-outs that look alike come from different tables or passages of the source.

Experiments:
CRBN-DDB1 = CRBN-DDB1 (Homo sapiens (Human), UniProt Q96SW2); assay: Compound binding to CRBN by HTRF assay
Procedure, shortened: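 HTRF displacement of Cy5-thalidomide probe (100 nM) from His-tagged CRBN-DDB1 (2.5 nM) with anti-His terbium cryptate, in HEPES/NaCl/TCEP/EDTA/Tween20 buffer; 11-point 1:3 dilution series, 30 min at ambient temperature. Signal (665/620 nm) normalized to lenalidomide and DMSO controls; EC50 fitted, Ki by Cheng-Prusoff from geometric mean EC50.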

NEK7 = NEK7 (Homo sapiens (Human), UniProt Q8TDX7+Q96SW2); assay: NEK7 NanoBiT degradation assay in Cal51 NEK7 NanoBiT cell line; assay type: cell-based; conditions: Cal51 NEK7 NanoBiT cells, 24 hours; for Dmax: CAL-51
Chain of NEK7 (Q8TDX7 whole entry): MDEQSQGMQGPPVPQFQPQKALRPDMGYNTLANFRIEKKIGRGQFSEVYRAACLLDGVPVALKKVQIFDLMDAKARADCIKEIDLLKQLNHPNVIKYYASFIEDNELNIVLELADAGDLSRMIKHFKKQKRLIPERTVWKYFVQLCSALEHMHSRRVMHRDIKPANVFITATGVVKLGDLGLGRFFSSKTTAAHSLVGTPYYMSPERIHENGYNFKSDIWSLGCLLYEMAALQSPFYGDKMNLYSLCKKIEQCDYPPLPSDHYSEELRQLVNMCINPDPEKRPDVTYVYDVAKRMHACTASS
Chain of NEK7 (Q96SW2 whole entry): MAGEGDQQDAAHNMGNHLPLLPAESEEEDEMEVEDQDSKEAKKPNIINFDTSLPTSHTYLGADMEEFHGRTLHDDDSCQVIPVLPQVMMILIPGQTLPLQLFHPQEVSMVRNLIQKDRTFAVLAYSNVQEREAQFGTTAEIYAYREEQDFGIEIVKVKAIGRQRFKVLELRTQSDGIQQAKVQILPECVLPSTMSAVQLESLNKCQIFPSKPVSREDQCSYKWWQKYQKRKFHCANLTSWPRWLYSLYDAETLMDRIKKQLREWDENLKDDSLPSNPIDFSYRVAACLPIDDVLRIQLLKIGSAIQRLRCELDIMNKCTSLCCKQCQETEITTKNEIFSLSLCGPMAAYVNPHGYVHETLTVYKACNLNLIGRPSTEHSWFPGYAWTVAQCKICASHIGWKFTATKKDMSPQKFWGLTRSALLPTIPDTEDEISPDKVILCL
Chain of NEK7 (Q16531 2-1140 partner): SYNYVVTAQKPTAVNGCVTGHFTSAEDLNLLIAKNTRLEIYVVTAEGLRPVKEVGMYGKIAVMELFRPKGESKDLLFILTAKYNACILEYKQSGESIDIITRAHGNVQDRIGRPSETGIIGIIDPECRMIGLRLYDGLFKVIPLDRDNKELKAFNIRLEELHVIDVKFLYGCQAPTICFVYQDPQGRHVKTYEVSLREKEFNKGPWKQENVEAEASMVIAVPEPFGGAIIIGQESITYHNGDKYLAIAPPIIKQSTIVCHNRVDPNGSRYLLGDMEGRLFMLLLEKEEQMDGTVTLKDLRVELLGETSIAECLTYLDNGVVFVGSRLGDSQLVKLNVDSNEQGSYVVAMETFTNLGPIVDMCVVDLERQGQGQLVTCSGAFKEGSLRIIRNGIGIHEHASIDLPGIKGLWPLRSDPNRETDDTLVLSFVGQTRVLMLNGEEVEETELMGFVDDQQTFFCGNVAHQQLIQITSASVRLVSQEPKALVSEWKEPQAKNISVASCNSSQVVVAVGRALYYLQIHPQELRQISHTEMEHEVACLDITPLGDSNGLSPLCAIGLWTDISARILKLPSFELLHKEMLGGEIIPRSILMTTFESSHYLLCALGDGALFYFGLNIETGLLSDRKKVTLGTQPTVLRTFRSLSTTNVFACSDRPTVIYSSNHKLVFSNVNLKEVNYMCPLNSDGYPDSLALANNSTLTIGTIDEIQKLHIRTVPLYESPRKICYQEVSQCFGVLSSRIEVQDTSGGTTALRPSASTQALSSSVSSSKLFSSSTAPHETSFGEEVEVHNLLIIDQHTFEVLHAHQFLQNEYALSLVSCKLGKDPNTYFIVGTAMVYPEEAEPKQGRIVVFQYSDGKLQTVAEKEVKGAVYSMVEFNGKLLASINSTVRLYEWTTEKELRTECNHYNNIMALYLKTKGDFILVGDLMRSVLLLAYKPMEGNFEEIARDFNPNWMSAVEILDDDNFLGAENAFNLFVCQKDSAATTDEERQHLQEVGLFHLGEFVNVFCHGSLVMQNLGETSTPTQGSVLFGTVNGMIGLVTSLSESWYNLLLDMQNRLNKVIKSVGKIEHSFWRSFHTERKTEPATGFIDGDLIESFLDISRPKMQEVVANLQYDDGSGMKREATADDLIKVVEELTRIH
Procedure, shortened: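 Cal51 cells with CRISPR knock-in HiBiT-tagged endogenous NEK7 plus stable LgBiT, in live-cell Endurazine medium, seeded 16 h before dosing. Compounds at final 1 μM to 0.05 nM for 24 h at 37 °C, then luminescence read. Response normalized to plate controls and fitted with a 4-parameter logistic giving EC50.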

[1] = NEK7 degradation, read-out: NanoBiT Dmax
[2] = NEK7 degradation, read-out: NanoBiT DC50

Chain of CRBN-DDB1 (Q96SW2 whole entry): as the sequence (Q96SW2 whole entry) above
Chain of CRBN-DDB1 (Q16531 whole entry partner): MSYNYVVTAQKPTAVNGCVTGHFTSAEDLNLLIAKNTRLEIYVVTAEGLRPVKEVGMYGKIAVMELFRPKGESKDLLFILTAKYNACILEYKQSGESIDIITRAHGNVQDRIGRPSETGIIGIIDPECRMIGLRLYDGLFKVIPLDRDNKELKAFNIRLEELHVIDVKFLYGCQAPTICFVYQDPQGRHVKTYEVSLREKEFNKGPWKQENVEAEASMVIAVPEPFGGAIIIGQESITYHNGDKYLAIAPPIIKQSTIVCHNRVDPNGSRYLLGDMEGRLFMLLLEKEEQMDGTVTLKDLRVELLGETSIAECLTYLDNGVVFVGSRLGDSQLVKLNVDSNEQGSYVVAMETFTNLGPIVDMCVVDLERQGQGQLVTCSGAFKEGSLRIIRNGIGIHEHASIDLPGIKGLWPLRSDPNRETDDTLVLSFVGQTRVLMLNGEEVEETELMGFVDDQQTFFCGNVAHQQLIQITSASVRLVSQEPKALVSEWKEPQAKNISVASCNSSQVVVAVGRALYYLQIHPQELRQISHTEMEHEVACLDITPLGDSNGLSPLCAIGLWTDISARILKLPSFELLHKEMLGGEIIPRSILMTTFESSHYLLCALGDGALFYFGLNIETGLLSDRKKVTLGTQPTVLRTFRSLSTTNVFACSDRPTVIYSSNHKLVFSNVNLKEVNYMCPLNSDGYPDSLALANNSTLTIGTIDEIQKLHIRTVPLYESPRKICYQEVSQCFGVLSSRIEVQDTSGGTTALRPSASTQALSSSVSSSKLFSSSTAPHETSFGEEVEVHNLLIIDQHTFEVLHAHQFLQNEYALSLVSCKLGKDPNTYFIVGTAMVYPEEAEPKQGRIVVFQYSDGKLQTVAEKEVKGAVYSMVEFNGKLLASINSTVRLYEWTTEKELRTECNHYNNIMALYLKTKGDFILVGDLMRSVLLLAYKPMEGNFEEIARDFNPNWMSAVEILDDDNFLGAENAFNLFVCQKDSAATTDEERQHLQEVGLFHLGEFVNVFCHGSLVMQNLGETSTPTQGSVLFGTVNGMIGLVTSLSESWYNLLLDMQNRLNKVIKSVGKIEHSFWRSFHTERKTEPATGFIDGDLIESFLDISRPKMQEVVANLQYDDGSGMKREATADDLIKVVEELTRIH

Row | SMILES | EC50 (CRBN-DDB1) [nM] | EC50 (CRBN-DDB1; HTRF class, Cereblon binding) [nM] | Dmax (NEK7; read-out: NEK7 NanoBiT Dmax) [%] | Dmax (NEK7; [1]) [%] | DC50 (NEK7; read-out: NEK7 NanoBiT DC50) [nM] | DC50 (NEK7; [2]) [nM]
1 | CC(C)(C(=O)NCc1cc(Cl)c(C2CCC(=O)NC2=O)c(Cl)c1)c1ccncc1F (stereo not drawn) [Compound 88] | 110 | 100 to 1000 | 93 | > 75 | 4 | ≤ 100
2 | CC(C)(C(=O)NCc1cc(Cl)c(C2CCC(=O)NC2=O)c(Cl)c1)c1ccc(OC(F)(F)F)nn1 (stereo not drawn) [Compound 223, N-(3,5-dichloro-4-(2,6-dioxopiperidin-3-yl)benzyl)-2-methyl-2-(6-(trifluoromethoxy)pyridazin-3-yl)propanamide] | 90 | ≤ 100 | 91 | > 75 | 8 | ≤ 100
3 | CC(C)(C(=O)NCc1cc(Cl)c(C2CCC(=O)NC2=O)c(Cl)c1)c1cnco1 (stereo not drawn) [Compound 122] | 230 | 100 to 1000 | 73 | 50 to 75 | 56 | ≤ 100
4 | Cc1cncc(C(C)(C)C(=O)NCc2cc(Cl)c(C3CCC(=O)NC3=O)c(Cl)c2)n1 (stereo not drawn) [Compound 176] | 50 | ≤ 100 | 60 | 50 to 75 | 116 | 100 to 1000
5 | Cc1cnc(C(C)(C)C(=O)NCc2cc(F)c(C3CCC(=O)NC3=O)c(Cl)c2)o1 (stereo not drawn) [Compound 270, N-(3-chloro-4-(2,6-dioxopiperidin-3-yl)-5-fluorobenzyl)-2-methyl-2-(5-methyloxazol-2-yl)propanamide] | 190 | 100 to 1000 | 72 | 50 to 75 | 73 | ≤ 100
6 | CC(C)(C(=O)NCc1cc(Cl)c(C2CCC(=O)NC2=O)c(Cl)c1)c1ccc(F)cn1 (stereo not drawn) [Compound 22] | 120 | 100 to 1000 | 93 | > 75 | 4 | ≤ 100
7 | CC(C)(C(=O)NCc1cc(Cl)c(C2CCC(=O)NC2=O)c(Cl)c1)c1ccon1 (stereo not drawn) [Compound 121] | 290 | 100 to 1000 | 80 | > 75 | 30 | ≤ 100
8 | CC(C)(C(=O)NCc1cc(Cl)c(C2CCC(=O)NC2=O)c(Cl)c1)c1ncc(C2CC2)cn1 (stereo not drawn) [Compound 1, 2-(5-cyclopropylpyrimidin-2-yl)-N-(3,5-dichloro-4-(2,6-dioxopiperidin-3-yl)benzyl)-2-methylpropan-amide] | 150 | 100 to 1000 | 89 | > 75 | 9 | ≤ 100
9 | CC(C)(C(=O)NCc1cc(Cl)c(C2CCC(=O)NC2=O)c(Cl)c1)c1cncc(F)c1 (stereo not drawn) [Compound 85] | 40 | ≤ 100 | 81 | > 75 | 11 | ≤ 100
10 | CC(C)(C(=O)NCc1ccc(C2CCC(=O)NC2=O)c(Cl)c1)c1ccccc1F (stereo not drawn) [Compound 24] | 320 | 100 to 1000 | 74 | 50 to 75 | 76 | ≤ 100
11 | CC(C)(C(=O)NCc1cc(Cl)c(C2CCC(=O)NC2=O)c(Cl)c1)c1cc(F)c(S(N)(=O)=O)c(F)c1 (stereo not drawn) [Compound 36, N-(3,5-dichloro-4-(2,6-dioxopiperidin-3-yl)benzyl)-2-(3,5-difluoro-4-sulfamoylphenyl)-2-methylpropanamide] | 80 | ≤ 100 | 95 | > 75 | 5 | ≤ 100
12 | CC(C)(C(=O)NCc1cc(Cl)c(C2CCC(=O)NC2=O)c(Cl)c1)c1nc(C2CC2)co1 (stereo not drawn) [Compound 193] | 80 | ≤ 100 | 87 | > 75 | 10 | ≤ 100
13 | CC(C)(C(=O)NCc1cc(Cl)c(C2CCC(=O)NC2=O)c(Cl)c1)c1nccc(CO)n1 (stereo not drawn) [Compound 215] | 120 | 100 to 1000 | 65 | 50 to 75 | 118 | 100 to 1000
14 | CC(C)(C(=O)NCc1cc(Cl)c(C2CCC(=O)NC2=O)c(Cl)c1)c1cc(C(F)(F)F)on1 (stereo not drawn) [Compound 230, N-(3,5-dichloro-4-(2,6-dioxopiperidin-3-yl)benzyl)-2-methyl-2-(5-(trifluoromethyl)isoxazol-3-yl)propanamide] | 110 | 100 to 1000 | 83 | > 75 | 23 | ≤ 100
15 | CC(C)(C(=O)NCc1cc(Cl)c(C2CCC(=O)NC2=O)c(C#N)c1)c1ccccc1 (stereo not drawn) [Compound 242, N-(3-chloro-5-cyano-4-(2,6-dioxopiperidin-3-yl)benzyl)-2-methyl-2-phenylpropanamide] | 430 | 100 to 1000 | 59 | 50 to 75 | 319 | 100 to 1000
16 | CC1(C(=O)NCc2cc(Cl)c(C3CCC(=O)NC3=O)c(Cl)c2)COc2ccccc2O1 (stereo not drawn) [Compound 47] | 30 | ≤ 100 | 85 | > 75 | 4 | ≤ 100
17 | CC(C)(C(=O)NCc1cc(Cl)c(C2CCC(=O)NC2=O)c(Cl)c1)c1ncc(Cl)cn1 (stereo not drawn) [Compound 194] | 120 | 100 to 1000 | 96 | > 75 | 1 | ≤ 100
18 | Cc1cnc(C(C)(CO)C(=O)NCc2cc(Cl)c(C3CCC(=O)NC3=O)c(Cl)c2)nc1 (stereo not drawn) [Compound 241, N-(3,5-dichloro-4-(2,6-dioxopiperidin-3-yl)benzyl)-3-hydroxy-2-methyl-2-(5-methylpyrimidin-2-yl)propanamide] | 140 | 100 to 1000 | 86 | > 75 | 15 | ≤ 100
19 | CC(C)(C(=O)NCc1cc(Cl)c(C2CCC(=O)NC2=O)c(Cl)c1)c1ncc(OC(F)F)cn1 (stereo not drawn) [Compound 188] | 80 | ≤ 100 | 93 | > 75 | 4 | ≤ 100
20 | CC(C)(C(=O)NCc1cc(Cl)c(C2CCC(=O)NC2=O)c(Cl)c1)c1ccnc(C(F)F)n1 (stereo not drawn) [Compound 156, N-(3,5-dichloro-4-(2,6-dioxopiperidin-3-yl)benzyl)-2-(2-(difluoromethyl)pyrimidin-4-yl)-2-methylpropanamide] | 330 | 100 to 1000 | 54 | 50 to 75 | 435 | 100 to 1000
21 | CC(C)(C(=O)NCc1cc(Cl)c(C2CCC(=O)NC2=O)c(Cl)c1)c1cccc(S(N)(=O)=O)c1 (stereo not drawn) [Compound 60] | 60 | ≤ 100 | 96 | > 75 | 2 | ≤ 100
22 | Cc1nnc(C2(C(=O)NCc3cc(Cl)c(C4CCC(=O)NC4=O)c(Cl)c3)CCC2)o1 (stereo not drawn) [Compound 226, N-(3,5-dichloro-4-(2,6-dioxopiperidin-3-yl)benzyl)-1-(5-methyl-1,3,4-oxadiazol-2-yl)-cyclobutane-1-carboxamide] | 130 | 100 to 1000 | 54 | 50 to 75 | 556 | 100 to 1000
23 | CC(C)(C(=O)NCc1cc(Cl)c(C2CCC(=O)NC2=O)c(Cl)c1)c1nc(C2CC2)no1 (stereo not drawn) [Compound 218] | 80 | ≤ 100 | 71 | 50 to 75 | 49 | ≤ 100
